Source: patent publication US20230295068A1, “NOVEL CYCLOALKENONE COMPOUND OR SALT THEREOF” (TAIHO PHARMACEUTICAL CO., LTD., priority 2020, published 2023)

Assays:
[1] = Pharmacokinetics: plasma concentration after oral administration to rats; assay type: in vivo, rat; conditions: Crl:CD(SD) (Sprague-Dawley), male rat (Crl: CD (SD)), 10 mg/kg, plasma
Procedure: The required amounts of compounds were weighed, and drug suspensions were prepared in 0.5% hydroxypropyl methylcellulose. The number of rats in each group was two, and each drug suspension was administered orally to each male rat (Crl: CD (SD)) using an oral sonde (the dose of the compound was 10 mg/kg). At each blood collection point (0.5, 1, 2, 4, 8, and 24 hours after administration), blood was collected from the jugular vein using a syringe and a needle (the anticoagulant was heparin sodium). The collected blood was centrifuged (13000 rpm, 2 min, 4° C.) to prepare plasma, followed by deproteinization. Thereafter, the concentration of the compound in the plasma was measured by LC/MS/MS (ICMS-8040 (Shimadzu Corporation) or API 4000 (AB Sciex), IC: 30-A and 20-A series (Shimadzu Corporation) or Waters Acquity (Waters Corporation)).

ND3 neuronal cell line = experiment: Measurement of nerve growth stimulation effect (neurite bearing assay, neurite length assay, number of cells); assay type: cell-based; conditions: relative cell number, DMSO well = 1; for viability at 1 µM / viability at 3 µM / viability at 5 µM / viability at 10 µM / viability at 30 µM / viability at 100 µM: 6 hours; for Number of cells: ND3 cells, 6 h
Procedure: To evaluate the nerve growth stimulation effect, neurite bearing assay (proportion of neurite-bearing cells) and neurite length assay (neurite length) were analyzed with reference to the method of Topalli et al. (Brain Research 1030 (2004), pp. 116-124).
An ND3 neuronal cell line (European Collection of Authenticated Cell Cultures) was seeded in a DMEM medium containing 10% fetal bovine serum (0.6×10^4 cells/1 mL) in a 24-well plate. 24 hours later, the medium of seeded cells was removed, and a solution in which the compound of the present disclosure that was sequentially diluted in dimethyl sulfoxide (DMSO) was adjusted in DIEM containing 0.1% bovine serum albumin so that the DMSO final concentration was 0.1%, was added to cells (evaluation performed in duplicate). After six hours from the addition, the proportion of neurite-bearing cells (the number of cells having a neurite longer than the diameter of the cell body/number of total cells), and the neurite length per cell were analyzed. The number of total cells, proportion of neurite-bearing cells, and neurite length per cell were analyzed using a MetaMorph Neurite Outgrowth Application Module (Molecular Devices Japan K.K.). The number of cells was defined as the relative cell number, taking the number of cells per well containing DMSO as 1. The relative activity of each compound when the maximum activity of 3-(15-methoxypentadecyl)-2,4,4-trimethylcyclohexa-2-en-1-one (compound 24) in each test was defined as 1 is shown (Table 9). For the compounds for which multiple tests were conducted, the average value was shown. Data with a number of cells of 0.5 or more was also used. Accordingly, if the number of cells was less than 0.5, the neurite length per cell and the proportion of neurite-bearing cells were defined as “-”.

| AUC(0-inf) [1] [nM·h] | Cmax [1] [nM] | Number of cells (ND3 neuronal cell line; 1 μM compound) | Number of cells (ND3 neuronal cell line; 3 μM compound) | Number of cells (ND3 neuronal cell line; 5 μM compound) | Number of cells (ND3 neuronal cell line; 10 μM compound) | Number of cells (ND3 neuronal cell line; 30 μM compound) | Number of cells (ND3 neuronal cell line; 100 μM compound) | SMILES | viability at 1 µM (ND3 neuronal cell line) [%] | viability at 3 µM (ND3 neuronal cell line) [%] | viability at 5 µM (ND3 neuronal cell line) [%] | viability at 10 µM (ND3 neuronal cell line) [%] | viability at 30 µM (ND3 neuronal cell line) [%] | viability at 100 µM (ND3 neuronal cell line) [%] |
| --- | --- | --- | --- | --- | --- | --- | --- | --- | --- | --- | --- | --- | --- | --- |
| 3 | 2 | – | – | – | – | – | – | CC1=C(CCCCCCCCCCCCCCCO)C(C)(C)CCC1=O [Compound 4, 3-(15-hydroxypentadecyl)-2,4,4-trimethylcyclohex-2-en-1-one, reference compound] | 103 | 92 | 92 | 101 | 19 | – |
| – | – | 0.84 | 0.82 | 0.87 | 0.77 | 0.92 | 0.82 | CCCC1=C(CCCCCCCCCCCCCCCOC)C(C)(C)CCC1=O [Compound 61, 3-(15-methoxypentadecyl)-4,4-dimethyl-2-propylcyclohex-2-en-1-one] | – | – | – | – | – | – |
| – | – | – | – | – | – | – | – | CC1=C(CCCCCCCCCCCCCCCO)CCCC1=O [Compound 7, 3-(15-hydroxypentadecyl)-2-methylcyclohex-2-en-1-one, reference compound] | 100 | 100 | 87 | 86 | 17 | 19 |
| – | – | – | – | – | – | – | – | COCCCCCCCCCCCCCC1=C(C)C(=O)CCC1(C)C [Compound 16, 3-(13-methoxytridecyl)-2,4,4-trimethylcyclohex-2-en-1-one] | 89 | 88 | 71 | 68 | 69 | 77 |
| – | – | – | – | – | – | – | – | CCCCOCCCCCCCCCCCCC1=C(C)C(=O)CCC1(C)C [Compound 15, 3-(12-butoxydodecyl)-2,4,4-trimethylcyclohex-2-en-1-one] | 93 | 100 | 95 | 88 | 101 | 92 |
| – | – | – | – | – | – | – | – | CC1(C)CCC(=O)C=C1CCCCCCCCCCCCCCCO [Compound 8, 3-(15-hydroxypentadecyl)-4,4-dimethylcyclohex-2-en-1-one, reference compound] | 101 | 102 | 98 | 93 | 6 | 9 |
| – | – | – | – | – | – | – | – | COCCCCCCCCCCCCCCCC1=C(C)C(=O)CCC1 [Compound 38, 3-(15-methoxypentadecyl)-2-methylcyclohex-2-en-1-one] | 96 | 101 | 91 | 86 | 80 | 52 |
| – | – | – | – | – | – | – | – | CCC1=C(CCCCCCCCCCCCCCCOC)C(C)(C)CCC1=O [Compound 60, 2-ethyl-3-(15-methoxypentadecyl)-4,4-dimethylcyclohex-2-en-1-one] | 90 | 91 | 80 | 78 | 34 | 79 |
| – | – | – | – | – | – | – | – | CNC(=O)OCCCCCCCCCCCCCCCC1=C(C)C(=O)CCC1(C)C [Compound 55, 15-(2,6,6-trimethyl-3-oxocyclohex-1-en-1-yl)pentadecylmethylcarbamate] | 105 | 102 | 85 | 85 | 69 | 25 |
| – | – | – | – | – | – | – | – | COCCCCCCCCCCCCCCCC1=C(C)C(=O)C(C)C1C (stereo not shown) [Compound 46, 3-(15-methoxypentadecyl)-2,4,5-trimethylcyclopent-2-en-1-one] | 94 | 99 | 83 | 78 | 102 | 98 |
| – | – | – | – | – | – | – | – | [2H]C([2H])(CCCCCCCCCCCCCCC1=C(C)C(=O)CCC1(C)C)OC [Compound 28, 3-(15-methoxypentadecyl-15,15-d2)-2,4,4-trimethylcyclohex-2-en-1-one] | 92 | 86 | 71 | 68 | 77 | 86 |
| – | – | – | – | – | – | – | – | CCOCCCCCCCCCCCCC1=C(C)C(=O)CCC1(C)C [Compound 12, 3-(12-ethoxydodecyl)-2,4,4-trimethylcyclohex-2-en-1-one] | 96 | 90 | 77 | 69 | 11 | 3 |
| – | – | 0.84 | 0.85 | 0.78 | 0.80 | 0.41 | 0.38 | COCCCCCCCCCCCCCCC1=C(C)C(=O)CC1(C)C [Compound 72, 3-(14-methoxytetradecyl)-2,4,4-trimethylcyclopent-2-en-1-one] | – | – | – | – | – | – |
| – | – | – | – | – | – | – | – | COCCCCCCCCCCCCCCCC1=CC(=O)CCC1 [Compound 37, 3-(15-methoxypentadecyl)cyclohex-2-en-1-one] | 99 | 102 | 84 | 89 | 107 | 97 |
| – | – | – | – | – | – | – | – | CC1=C(CCCCCCCCCCCCCCCOC(N)=O)C(C)(C)CCC1=O [Compound 35, 15-(2,6,6-trimethyl-3-oxocyclohex-1-en-1-yl)pentadecylcarbamate] | 94 | 94 | 99 | 82 | 16 | 31 |
| – | – | 0.85 | 0.92 | 0.73 | 0.71 | 0.95 | 0.89 | COCCCCCCCCCCCCCCCC1=C(C)/C(=N/OC)CCC1(C)C [Compound 68, 3-(15-methoxypentadecyl)-2,4,4-trimethylcyclohex-2-en-1-one O-methyloxime] | – | – | – | – | – | – |
| – | – | 0.89 | 0.93 | 0.94 | 0.80 | 0.75 | 0.80 | CC1=C(CCCCCCCCCCCCCCC#N)C(C)(C)CC1=O [Compound 75, 15-(2,5,5-trimethyl-3-oxocyclopent-1-en-1-yl)pentadecanitrile] | – | – | – | – | – | – |
| – | – | – | – | – | – | – | – | COCCCCCCCCCCCCCCC1=C(C)C(=O)CCC1(C)C [Compound 21, 3-(14-methoxytetradecyl)-2,4,4-trimethylcyclohex-2-en-1-one] | 104 | 111 | 102 | 103 | 82 | 96 |
| – | – | – | – | – | – | – | – | COC(C)(C)CCCCCCCCCCCCCCC1=C(C)C(=O)CCC1(C)C [Compound 48, 3-(15-methoxy-15-methylhexadecyl)-2,4,4-trimethylcyclohex-2-en-1-one] | 85 | 93 | 91 | 90 | 93 | 87 |
| – | – | – | – | – | – | – | – | CCCOCCCCCCCCCCCCCC1=C(C)C(=O)CCC1(C)C [Compound 19, 2,4,4-trimethyl-3-(13-propoxytridecyl)cyclohex-2-en-1-one] | 98 | 105 | 85 | 88 | 111 | 105 |
| – | – | – | – | – | – | – | – | CCOCCCCCCCCCCCCCCCCC1=C(C)C(=O)CCC1(C)C [Compound 30, 3-(16-ethoxyhexadecyl)-2,4,4-trimethylcyclohex-2-en-1-one] | 88 | 91 | 83 | 87 | 95 | 98 |
| – | – | – | – | – | – | – | – | CCNC(=O)OCCCCCCCCCCCCCCCC1=C(C)C(=O)CCC1(C)C [Compound 56, 15-(2,6,6-trimethyl-3-oxocyclohex-1-en-1-yl)pentadecylethylcarbamate] | 94 | 106 | 93 | 95 | 95 | 93 |
